Experimental data published in patent US12723063B2, “GIPR-agonist compounds” (Eli Lilly and Company, priority 2019, dated 2026).
*1 amine or outer side, *2 acyl side, *3 side chain or, on linkers, in order; H or OH if unused. Where a SMILES comes first, the peptide text is derived from it. Side-chain parts run from the residue outwards. [ ]: non-standard residue; d: D form. The star is where a group is joined. C20 diacid = O=C(O)CCCCCCCCCCCCCCCCCCC(=O)*; C18 diacid = O=C(O)CCCCCCCCCCCCCCCCC(=O)*; αMePhe(2-F) = C[C@](N)(Cc1ccccc1F)C(=O)O; γGlu = O=C(O)[C@H](CCC(=O)[*:2])N[*:1]; 4Pal = N[C@@H](Cc1ccncc1)C(=O)O; αMeL = CC(C)C[C@](C)(N)C(=O)O; Iva = CC[C@](C)(N)C(=O)O; Orn = NCCC[C@H](N)C(=O)O; AEEA = NCCOCCOCC(=O)O; Aib = CC(C)(N)C(=O)O

Experiments:
human GIPR = molecular target: T1, human GIPR (Homo sapiens, UniProt P48546); assay: [125I]-GIP binding, SPA with WGA beads, 0.1% bacitracin; details: geometric mean, read-out: hGIPR Ki
T1 construct: expressed in transfected cells; crude membranes
T1 sequence (P48546 22-466): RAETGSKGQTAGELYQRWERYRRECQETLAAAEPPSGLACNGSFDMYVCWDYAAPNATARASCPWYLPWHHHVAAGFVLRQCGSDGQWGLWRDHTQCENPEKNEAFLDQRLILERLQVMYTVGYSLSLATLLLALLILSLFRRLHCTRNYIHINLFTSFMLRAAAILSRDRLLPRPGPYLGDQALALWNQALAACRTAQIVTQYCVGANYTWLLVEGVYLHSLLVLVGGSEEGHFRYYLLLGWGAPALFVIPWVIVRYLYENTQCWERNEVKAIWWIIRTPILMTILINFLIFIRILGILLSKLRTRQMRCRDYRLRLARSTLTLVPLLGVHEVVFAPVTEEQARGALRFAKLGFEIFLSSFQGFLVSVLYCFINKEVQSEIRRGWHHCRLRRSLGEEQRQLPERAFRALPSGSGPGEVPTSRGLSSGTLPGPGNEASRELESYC
Outline: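 Ki values are geometric means (SEM, n independent days), derived from four-parameter nonlinear regression of IC50. Membranes came from hGIPR-expressing CHO cells.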

human GLP-1R = molecular target: T2, human GLP-1R (Homo sapiens, UniProt P43220); assay: [125I]-GLP-1 binding, SPA with WGA beads, 0.1% bacitracin; details: geometric mean, read-out: hGLP1R Ki
T2 construct: expressed in transfected cells; crude membranes
T2 sequence (P43220 24-463): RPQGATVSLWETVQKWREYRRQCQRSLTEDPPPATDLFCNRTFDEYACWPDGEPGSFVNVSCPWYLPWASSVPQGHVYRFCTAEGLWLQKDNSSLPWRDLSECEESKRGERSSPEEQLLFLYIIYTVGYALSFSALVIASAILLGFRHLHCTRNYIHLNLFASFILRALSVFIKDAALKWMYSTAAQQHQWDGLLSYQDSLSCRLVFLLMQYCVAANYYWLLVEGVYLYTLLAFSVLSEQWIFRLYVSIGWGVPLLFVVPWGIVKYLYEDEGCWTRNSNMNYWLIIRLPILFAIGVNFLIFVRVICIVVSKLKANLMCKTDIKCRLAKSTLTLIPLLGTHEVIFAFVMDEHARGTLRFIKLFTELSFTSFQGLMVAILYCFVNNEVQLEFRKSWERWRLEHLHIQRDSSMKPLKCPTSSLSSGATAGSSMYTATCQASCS
Outline: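 Binding buffer was 25 mM HEPES pH 7.4 with 2.5 mM CaCl2, 1 mM MgCl2, 0.1% (w/v) bacitracin, 0.003% Tween-20 and EDTA-free protease inhibitors. Four-parameter regression gave IC50, converted to Ki (geometric mean, SEM, n independent days).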

CC[C@H](C)[C@H](NC(=O)[C@H](CO)NC(=O)[C@H](Cc1ccc(O)cc1)NC(=O)[C@H](CC(=O)O)NC(=O)[C@H](CO)NC(=O)[C@@H](NC(=O)[C@](C)(CC)NC(=O)[C@@H](NC(=O)CNC(=O)[C@H](CCC(=O)O)NC(=O)C(C)(C)NC(=O)[C@@H](N)Cc1ccc(O)cc1)[C@@H](C)O)[C@@H](C)CC)C(=O)N[C@@](C)(CC(C)C)C(=O)N[C@@H](CC(C)C)C(=O)N[C@@H](CC(=O)O)C(=O)N[C@@H](CCCCN)C(=O)N[C@@H](CCCCNC(=O)COCCOCCNC(=O)COCCOCCNC(=O)CC[C@H](NC(=O)CCCCCCCCCCCCCCCCCCC(=O)O)C(=O)O)C(=O)N[C@@H](Cc1c[nH]cn1)C(=O)N[C@@H](CCC(N)=O)C(=O)NC(C)(C)C(=O)N[C@@H](CC(=O)O)C(=O)N[C@@H](Cc1ccccc1)C(=O)N[C@H](C(=O)N[C@@H](CCC(=O)O)C(=O)N[C@@H](Cc1ccncc1)C(=O)N[C@@H](CC(C)C)C(=O)N[C@@H](CC(C)C)C(=O)N[C@@H](CCC(=O)O)C(=O)N[C@@H](C)C(=O)NCC(=O)N1CCC[C@H]1C(=O)N[C@@H](CO)C(=O)N[C@@H](CO)C(=O)NCC(=O)N[C@@H](C)C(=O)N1CCC[C@H]1C(=O)N1CCC[C@H]1C(=O)N1CCC[C@H]1C(=O)N[C@@H](CO)C(N)=O)C(C)C [Example 88] (H-Y[Aib]EGT[Iva]ISDYSI[αMeL]LDKK([AEEA-AEEA-γGlu-C20 diacid])HQ[Aib]DFVE[4Pal]LLEAGPSSGAPPPS-NH2)
Ki (human GIPR): 0.083 nM
Ki (human GLP-1R): 261 nM

CC[C@H](C)[C@H](NC(=O)[C@H](CO)NC(=O)[C@H](Cc1ccc(O)cc1)NC(=O)[C@H](CC(=O)O)NC(=O)[C@H](CO)NC(=O)[C@@H](NC(=O)[C@](C)(Cc1ccccc1F)NC(=O)[C@@H](NC(=O)CNC(=O)[C@H](CCC(=O)O)NC(=O)C(C)(C)NC(=O)[C@@H](N)Cc1ccc(O)cc1)[C@@H](C)O)[C@@H](C)CC)C(=O)N[C@@H](C)C(=O)N[C@@H](CC(C)C)C(=O)N[C@@H](CC(=O)O)C(=O)N[C@@H](CCCCN)C(=O)N[C@@H](CCCCNC(=O)COCCOCCNC(=O)COCCOCCNC(=O)CC[C@H](NC(=O)CCCCCCCCCCCCCCCCCCC(=O)O)C(=O)O)C(=O)N[C@@H](Cc1c[nH]cn1)C(=O)N[C@@H](CCC(N)=O)C(=O)NC(C)(C)C(=O)N[C@@H](CCC(=O)O)C(=O)N[C@@H](Cc1ccccc1)C(=O)N[C@H](C(=O)N[C@@H](CC(N)=O)C(=O)N[C@@H](Cc1c[nH]c2ccccc12)C(=O)N[C@@H](CC(C)C)C(=O)N[C@@H](CC(C)C)C(=O)N[C@@H](C)C(=O)NCC(=O)NCC(=O)N1CCC[C@H]1C(=O)N[C@@H](CO)C(=O)N[C@@H](CO)C(=O)NCC(=O)N[C@@H](C)C(=O)N1CCC[C@H]1C(=O)N1CCC[C@H]1C(=O)N1CCC[C@H]1C(=O)N[C@@H](CO)C(N)=O)C(C)C [Example 26] (H-Y[Aib]EGT[αMePhe(2-F)]ISDYSIALDKK([AEEA-AEEA-γGlu-C20 diacid])HQ[Aib]EFVNWLLAGGPSSGAPPPS-NH2)
Ki (human GIPR): 0.045 nM
Ki (human GLP-1R): 16.5 nM

CC[C@H](C)[C@H](NC(=O)[C@H](CCCN)NC(=O)[C@H](CC(=O)O)NC(=O)[C@H](CC(C)C)NC(=O)[C@](C)(CC(C)C)NC(=O)[C@@H](NC(=O)[C@H](CO)NC(=O)[C@H](Cc1ccc(O)cc1)NC(=O)[C@H](CC(=O)O)NC(=O)[C@H](CO)NC(=O)[C@@H](NC(=O)[C@H](Cc1ccccc1)NC(=O)[C@@H](NC(=O)CNC(=O)[C@H](CCC(=O)O)NC(=O)C(C)(C)NC(=O)[C@@H](N)Cc1ccc(O)cc1)[C@@H](C)O)[C@@H](C)CC)[C@@H](C)CC)C(=O)N[C@@H](Cc1c[nH]cn1)C(=O)N[C@@H](CCC(N)=O)C(=O)NC(C)(C)C(=O)N[C@@H](CCC(=O)O)C(=O)N[C@@H](Cc1ccccc1)C(=O)N[C@H](C(=O)N[C@@H](CCC(=O)O)C(=O)N[C@@H](Cc1ccc(O)cc1)C(=O)N[C@@H](CCCCNC(=O)COCCOCCNC(=O)COCCOCCNC(=O)CC[C@H](NC(=O)CCCCCCCCCCCCCCCCCCC(=O)O)C(=O)O)C(=O)N[C@@H](CC(C)C)C(=O)N[C@@H](CCC(=O)O)C(=O)N[C@@H](C)C(=O)NCC(=O)N1CCC[C@H]1C(=O)N[C@@H](CO)C(=O)N[C@@H](CO)C(=O)NCC(=O)N[C@@H](C)C(=O)N1CCC[C@H]1C(=O)N1CCC[C@H]1C(=O)N1CCC[C@H]1C(=O)N[C@@H](CO)C(N)=O)C(C)C [Example 104] (H-Y[Aib]EGTFISDYSI[αMeL]LD[Orn]IHQ[Aib]EFVEYK([AEEA-AEEA-γGlu-C20 diacid])LEAGPSSGAPPPS-NH2)
Ki (human GIPR): 0.134 nM
Ki (human GLP-1R): > 910 nM

CC[C@H](C)[C@H](NC(=O)[C@H](CCCCN)NC(=O)[C@H](CC(=O)O)NC(=O)[C@H](CC(C)C)NC(=O)[C@](C)(CC(C)C)NC(=O)[C@@H](NC(=O)[C@H](CO)NC(=O)[C@H](Cc1ccc(O)cc1)NC(=O)[C@H](CC(=O)O)NC(=O)[C@H](CO)NC(=O)[C@@H](NC(=O)[C@H](Cc1ccccc1)NC(=O)[C@@H](NC(=O)CNC(=O)[C@H](CCC(=O)O)NC(=O)C(C)(C)NC(=O)[C@@H](N)Cc1ccc(O)cc1)[C@@H](C)O)[C@@H](C)CC)[C@@H](C)CC)C(=O)N[C@@H](Cc1c[nH]cn1)C(=O)N[C@@H](CCC(N)=O)C(=O)NC(C)(C)C(=O)N[C@@H](CC(=O)O)C(=O)N[C@@H](Cc1ccccc1)C(=O)N[C@H](C(=O)N[C@@H](CCC(=O)O)C(=O)N[C@@H](Cc1ccncc1)C(=O)N[C@@H](CCCCNC(=O)COCCOCCNC(=O)COCCOCCNC(=O)CC[C@H](NC(=O)CCCCCCCCCCCCCCCCC(=O)O)C(=O)O)C(=O)N[C@@H](CC(C)C)C(=O)N[C@@H](CCC(=O)O)C(=O)NCC(=O)NCC(=O)N1CCC[C@H]1C(=O)N[C@@H](CO)C(=O)N[C@@H](CO)C(=O)NCC(=O)N[C@@H](C)C(=O)N1CCC[C@H]1C(=O)N1CCC[C@H]1C(=O)N1CCC[C@H]1C(=O)N[C@@H](CO)C(N)=O)C(C)C [Example 110] (H-Y[Aib]EGTFISDYSI[αMeL]LDKIHQ[Aib]DFVE[4Pal]K([AEEA-AEEA-γGlu-C18 diacid])LEGGPSSGAPPPS-NH2)
Ki (human GIPR): 0.339 nM
Ki (human GLP-1R): > 908 nM

CC[C@H](C)[C@H](NC(=O)[C@H](Cc1ccccc1)NC(=O)[C@@H](NC(=O)CNC(=O)[C@H](CCC(=O)O)NC(=O)C(C)(C)NC(=O)[C@@H](N)Cc1ccc(O)cc1)[C@@H](C)O)C(=O)N[C@@H](CO)C(=O)N[C@@H](CC(=O)O)C(=O)N[C@@H](Cc1ccc(O)cc1)C(=O)N[C@@H](CO)C(=O)N[C@H](C(=O)N[C@@](C)(CC(C)C)C(=O)N[C@@H](CC(C)C)C(=O)N[C@@H](CC(=O)O)C(=O)N[C@@H](CCCN)C(=O)N[C@@H](CCCCNC(=O)COCCOCCNC(=O)COCCOCCNC(=O)CC[C@H](NC(=O)CCCCCCCCCCCCCCCCC(=O)O)C(=O)O)C(=O)N[C@@H](Cc1c[nH]cn1)C(=O)N[C@@H](CCC(N)=O)C(=O)NC(C)(C)C(=O)N[C@@H](CC(=O)O)C(=O)N[C@@H](Cc1ccccc1)C(=O)N[C@H](C(=O)N[C@@H](CCC(=O)O)C(=O)N[C@@H](Cc1ccncc1)C(=O)N[C@@H](CC(C)C)C(=O)N[C@@H](CC(C)C)C(=O)N[C@@H](CCC(=O)O)C(=O)N[C@@H](C)C(=O)NCC(=O)N1CCC[C@H]1C(=O)N[C@@H](CO)C(=O)N[C@@H](CO)C(=O)NCC(=O)N[C@@H](C)C(=O)N1CCC[C@H]1C(=O)N1CCC[C@H]1C(=O)N1CCC[C@H]1C(=O)N[C@@H](CO)C(N)=O)C(C)C)[C@@H](C)CC [Example 87] (H-Y[Aib]EGTFISDYSI[αMeL]LD[Orn]K([AEEA-AEEA-γGlu-C18 diacid])HQ[Aib]DFVE[4Pal]LLEAGPSSGAPPPS-NH2)
Ki (human GIPR): 0.0538 nM
Ki (human GLP-1R): 849 nM
